From ChEMBL document CHEMBL1201862, “PubChem BioAssay data set” (2004)
Activity calls are given as the source filed them. Cut-off read from the data, not from the text of the source: active = IC50 of 10 µM or less and inactive = more.

How the values were obtained:
[1] = target: Neuropeptides B/W receptor type 1 (Homo sapiens, UniProt P48145); test: human NPBW1 receptor blockade, IC50 – cell-based, fluorescence, dose response, set 5, late-stage follow-up (AID 588566); assay type: functional
[2] = target: Melanin-concentrating hormone receptor 1 (Homo sapiens, UniProt Q99705); test: Late-stage fluorescence-based counterscreen for antagonists of the G-protein coupled receptor 7 (GPR7): cell-based dose response assay to identify antagonists of the melanin-concentrating hormone receptor 1 (MCHR1) Set 5.; assay type: functional
Melanin-concentrating hormone receptor 1, sequence (Q99705 whole entry): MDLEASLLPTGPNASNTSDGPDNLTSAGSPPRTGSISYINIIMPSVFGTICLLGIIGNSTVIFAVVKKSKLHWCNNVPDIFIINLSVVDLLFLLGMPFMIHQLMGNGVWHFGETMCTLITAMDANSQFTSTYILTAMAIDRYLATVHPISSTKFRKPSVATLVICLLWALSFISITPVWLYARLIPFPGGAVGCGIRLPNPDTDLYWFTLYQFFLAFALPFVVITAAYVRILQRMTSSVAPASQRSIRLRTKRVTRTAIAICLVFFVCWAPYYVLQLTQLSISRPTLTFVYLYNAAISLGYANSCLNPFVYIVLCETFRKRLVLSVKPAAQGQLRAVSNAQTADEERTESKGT

Neuropeptides B/W receptor type 1, sequence (P48145 whole entry): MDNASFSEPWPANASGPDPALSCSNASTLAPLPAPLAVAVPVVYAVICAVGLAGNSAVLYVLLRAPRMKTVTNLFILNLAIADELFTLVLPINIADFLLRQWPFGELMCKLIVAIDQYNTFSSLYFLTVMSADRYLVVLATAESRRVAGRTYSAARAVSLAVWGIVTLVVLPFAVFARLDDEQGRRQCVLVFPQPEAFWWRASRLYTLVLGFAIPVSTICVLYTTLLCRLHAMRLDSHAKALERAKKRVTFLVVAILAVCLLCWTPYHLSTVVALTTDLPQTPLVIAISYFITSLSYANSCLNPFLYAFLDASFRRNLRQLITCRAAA

COc1ccc(Oc2c(Cl)cnn(Cc3ccccc3C#N)c2=O)cc1
IC50 [1]: 1.45 µM (active) | IC50 [2]: 11.4 µM (inactive)
